{"source": "patent US11225459B2", "about": "“Substituted bisphenylalkylurea compounds and methods” (TEXAS TECH UNIVERSITY SYSTEM, priority 2017, dated 2022)", "key": {"[1]": {"target": "Dopamine Transporter (DAT) (Homo sapiens, UniProt Q01959)", "sequence (Q01959 whole entry, species assumed)": "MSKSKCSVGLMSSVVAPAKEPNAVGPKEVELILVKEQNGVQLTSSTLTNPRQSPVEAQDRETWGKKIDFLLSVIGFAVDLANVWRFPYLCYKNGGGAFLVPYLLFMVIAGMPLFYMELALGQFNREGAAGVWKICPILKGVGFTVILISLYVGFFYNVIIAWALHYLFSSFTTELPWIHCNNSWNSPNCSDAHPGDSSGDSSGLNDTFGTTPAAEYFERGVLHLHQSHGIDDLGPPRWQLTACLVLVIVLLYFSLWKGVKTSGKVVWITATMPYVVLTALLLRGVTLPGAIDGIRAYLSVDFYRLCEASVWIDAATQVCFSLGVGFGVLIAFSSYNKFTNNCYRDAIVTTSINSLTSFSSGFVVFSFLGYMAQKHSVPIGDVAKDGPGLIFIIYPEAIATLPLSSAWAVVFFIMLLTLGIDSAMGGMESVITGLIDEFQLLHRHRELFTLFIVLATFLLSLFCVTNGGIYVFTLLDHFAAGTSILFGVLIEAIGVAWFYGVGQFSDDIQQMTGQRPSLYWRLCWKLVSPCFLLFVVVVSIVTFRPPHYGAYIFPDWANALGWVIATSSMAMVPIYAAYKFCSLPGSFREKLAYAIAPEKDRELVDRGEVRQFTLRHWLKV", "test": "DAT inhibition (Ki), in vitro", "assay_type": "binding", "conditions": "FIG. 4", "text": "FIG. 4 depicts a graph showing DAT inhibition (Ki) of compound of the present disclosure designated Formula I (AZ2-57).\nIn one embodiment, compound of the present disclosure Formula I (AZ2-57) is shown in in vitro studies to show DAT inhibition (see FIG. 4)."}, "[2]": {"target": "H1 receptor (Homo sapiens, UniProt P35367)", "sequence (P35367 whole entry)": "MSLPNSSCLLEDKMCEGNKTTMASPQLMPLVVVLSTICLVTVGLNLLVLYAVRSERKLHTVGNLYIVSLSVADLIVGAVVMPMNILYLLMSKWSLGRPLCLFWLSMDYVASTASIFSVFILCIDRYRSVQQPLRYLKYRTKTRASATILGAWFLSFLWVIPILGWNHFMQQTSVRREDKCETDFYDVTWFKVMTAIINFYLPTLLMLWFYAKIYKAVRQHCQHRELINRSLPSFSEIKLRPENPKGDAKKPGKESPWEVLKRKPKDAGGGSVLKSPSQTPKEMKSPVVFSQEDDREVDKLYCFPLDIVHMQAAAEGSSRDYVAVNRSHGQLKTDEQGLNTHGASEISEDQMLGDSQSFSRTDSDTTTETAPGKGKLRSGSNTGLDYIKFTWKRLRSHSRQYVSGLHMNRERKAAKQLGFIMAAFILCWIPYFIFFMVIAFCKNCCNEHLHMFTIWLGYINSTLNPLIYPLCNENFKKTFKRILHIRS", "test": "H1 R inhibition (Ki)", "assay_type": "binding", "conditions": "FIG. 5", "text": "FIG. 5 depicts a graph showing H1 R inhibition (Ki) of compound of the present disclosure designated as Formula I (AZ2-57)."}, "[3]": {"target": "H2 receptor (Homo sapiens, UniProt P25021)", "sequence (P25021 whole entry)": "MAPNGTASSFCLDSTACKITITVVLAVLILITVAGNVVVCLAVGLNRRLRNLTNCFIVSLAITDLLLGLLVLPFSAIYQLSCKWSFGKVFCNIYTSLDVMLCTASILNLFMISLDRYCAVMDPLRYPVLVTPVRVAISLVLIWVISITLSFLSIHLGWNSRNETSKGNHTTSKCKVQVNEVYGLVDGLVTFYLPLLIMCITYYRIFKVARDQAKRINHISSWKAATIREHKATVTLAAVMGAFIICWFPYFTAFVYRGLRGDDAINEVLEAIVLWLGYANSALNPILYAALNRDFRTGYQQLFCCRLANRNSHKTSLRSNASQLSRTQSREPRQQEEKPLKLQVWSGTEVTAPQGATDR", "test": "H2 R inhibition (Ki)", "assay_type": "binding", "conditions": "FIG. 6", "text": "FIG. 6 depicts a graph showing H2 R inhibition (Ki) of compound of the present disclosure designated as Formula I (AZ2-57)."}, "[4]": {"system": "HUVEC cells", "test": "Ca2+ release assay (HUVEC cells)", "assay_type": "cell-based", "conditions": "FIG. 7", "text": "FIG. 7 depicts a graph showing Ca2+ release assay (HUVEC cells) of compound of the present disclosure designated as Formula I (AZ2-57).\nUnlike many other DAT inhibitors on the market, our compound has very limited interaction with other GPCR receptors, reducing potential CNS-induced toxicity. It is thus an embodiment of the present disclosure to further show effect on microglia-induced immune response (chronic inflammation), dopamine surge in the presence of Formula I (AZ2-57)."}}, "note": "pKi: −log10 of the molar value.", "data": [{"smiles": "O=C(NCCCCC(c1ccc(F)cc1)c1ccc(F)cc1)Nc1ccc(Cl)cc1", "note": "[AZ2-57, 1-(5,5-bis(4-fluorophenyl)pentyl)-3-(4-chlorophenyl)urea]", "values": [{"measurement": "pKi", "setting": "[1]", "value": 8.28}, {"measurement": "pKi", "setting": "[2]", "value": 7.49}, {"measurement": "inhibition of H1 receptor", "setting": "[2]", "value": 65.4, "unit": "%"}, {"measurement": "pKi", "setting": "[3]", "value": 5.76}, {"measurement": "inhibition of H2 receptor", "setting": "[3]", "value": 54, "unit": "%"}, {"measurement": "Ca2+ release", "setting": "[4]", "value": "effectively manipulated"}]}]}
